From ChEMBL document CHEMBL6074626, “Recent advances in triazole synthesis via click chemistry and their pharmacological applications: A review” (Bioorg Med Chem Lett, 2024) come the findings set out here.

The structures appear in SMILES notation. Converted amounts (≈) assume the structure as drawn.

One data set concerns HCT-116. Kind of data set: Antiproliferative activity against human HCT-116 cells assessed as reduction in cell viability incubated for 72 hrs by MTT assay. Conditions: HCT-116, 72 h.
In a further data set the test system is K562. Kind of data set: Antiproliferative activity against human K562 cells assessed as reduction in cell viability incubated for 72 hrs by MTT assay. Conditions: K562, 72 h. For orientation: Formazan colour is commonly taken as a measure of viable cells.
Data set [1] in a line: Antioxidant activity assessed as DPPH radical scavenging activity incubated for 30 mins. On the technique in general: Loss of DPPH colour is used to gauge radical scavenging.
Data set [2] in a line: Cytotoxicity against CHO-K1 cells assessed as reduction in cell growth incubated for 72 hrs by MTT assay. Conditions: Chinese hamster (Cricetulus griseus).
Another data set relates to Escherichia coli. The experiment in a line: microbe, parasite or virus in culture. Conditions: ATCC 25922.
The test system of the next data set is Bacillus cereus. The experiment in a line: microbe, parasite or virus in culture. Conditions: ATTC 10876.
Another data set has as its system Pseudomonas aeruginosa. The experiment in a line: microbe, parasite or virus in culture. Conditions: ATCC 27853.
In the next data set the test system is Staphylococcus aureus. Kind of data set: microbe, parasite or virus in culture. Conditions: ATCC 25923.
In a further data set the test system is Proteus mirabilis. Kind of data set: microbe, parasite or virus in culture. Conditions: ATCC 35659.
In data set [3] the test system is Enterococcus faecalis. Kind of data set: microbe, parasite or virus in culture. Conditions: ATTC 29212, 24 h.
Description: Antibacterial activity against Enterococcus faecalis ATCC 29212 assessed as reduction in bacterial growth incubated for 24 hrs by CLSI protocol based assay
In data set [4] the test system is Enterococcus faecalis. The experiment in a line: microbe, parasite or virus in culture. Conditions: ATCC 29212, 24 h.
Description: Antibacterial activity against Enterococcus faecalis ATCC 29212 assessed as inhibition of bacterial growth incubated for 24 hrs by broth microdilution method
The target in data set [5] is Cystic fibrosis transmembrane conductance regulator (Homo sapiens, UniProt P13569, F508DEL). Kind of data set: Activation of CFTR F508del mutant (unknown origin).
The subject of another data set is MCF7. Kind of data set: Cytotoxicity against human MCF7 cells assessed as reduction in cell viability incubated for 72 hrs by MTT assay. Conditions: MCF7, 72 h.
A further data set deals with MOLT-4. Kind of data set: Cytotoxicity against human MOLT-4 cells assessed as reduction in cell viability incubated for 72 hrs by MTT assay. Conditions: MOLT-4, 72 h.
Another data set has as its system HT-29. Kind of data set: Cytotoxicity against human HT-29 cells assessed as reduction in cell viability incubated for 72 hrs by MTT assay. Conditions: HT-29, 72 h.
In data set [6] the target is T1, UDP-N-acetylglucosamine--peptide N-acetylglucosaminyltransferase 110 kDa subunit (Homo sapiens, UniProt O15294).
T1 sequence (O15294 whole entry): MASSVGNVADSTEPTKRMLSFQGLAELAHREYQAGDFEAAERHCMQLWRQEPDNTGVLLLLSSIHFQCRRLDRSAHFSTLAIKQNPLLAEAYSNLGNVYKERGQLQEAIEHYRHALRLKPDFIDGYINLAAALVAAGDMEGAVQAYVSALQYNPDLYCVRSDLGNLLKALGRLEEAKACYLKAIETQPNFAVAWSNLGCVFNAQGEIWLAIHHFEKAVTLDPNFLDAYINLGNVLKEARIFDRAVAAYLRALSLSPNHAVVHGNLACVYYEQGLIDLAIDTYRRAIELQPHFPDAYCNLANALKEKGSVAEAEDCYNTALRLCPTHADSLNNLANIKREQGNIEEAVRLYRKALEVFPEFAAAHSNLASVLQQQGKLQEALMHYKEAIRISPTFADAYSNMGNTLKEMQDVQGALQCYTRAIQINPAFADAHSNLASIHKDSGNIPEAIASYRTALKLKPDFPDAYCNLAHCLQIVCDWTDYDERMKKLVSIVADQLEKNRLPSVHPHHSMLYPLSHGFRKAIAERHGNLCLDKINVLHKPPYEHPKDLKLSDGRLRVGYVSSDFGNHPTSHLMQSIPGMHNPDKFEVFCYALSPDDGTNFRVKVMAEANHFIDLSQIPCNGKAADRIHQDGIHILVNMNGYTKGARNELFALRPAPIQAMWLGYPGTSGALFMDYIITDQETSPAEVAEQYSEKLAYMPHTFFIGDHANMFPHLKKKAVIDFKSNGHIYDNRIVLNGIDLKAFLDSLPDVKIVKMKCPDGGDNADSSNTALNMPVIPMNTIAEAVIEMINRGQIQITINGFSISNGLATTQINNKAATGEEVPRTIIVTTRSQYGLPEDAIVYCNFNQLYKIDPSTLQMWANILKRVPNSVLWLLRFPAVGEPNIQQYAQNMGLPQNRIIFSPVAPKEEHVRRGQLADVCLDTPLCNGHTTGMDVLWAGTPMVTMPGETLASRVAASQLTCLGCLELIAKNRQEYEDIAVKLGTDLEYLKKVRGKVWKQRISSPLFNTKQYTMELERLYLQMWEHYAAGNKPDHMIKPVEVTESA
Description: Binding affinity to human recombinant OGT (312 to 1031 residue) assessed as inhibition constant by fluorescence based analysis

Sequence of Cystic fibrosis transmembrane conductance regulator (P13569 as listed by the source): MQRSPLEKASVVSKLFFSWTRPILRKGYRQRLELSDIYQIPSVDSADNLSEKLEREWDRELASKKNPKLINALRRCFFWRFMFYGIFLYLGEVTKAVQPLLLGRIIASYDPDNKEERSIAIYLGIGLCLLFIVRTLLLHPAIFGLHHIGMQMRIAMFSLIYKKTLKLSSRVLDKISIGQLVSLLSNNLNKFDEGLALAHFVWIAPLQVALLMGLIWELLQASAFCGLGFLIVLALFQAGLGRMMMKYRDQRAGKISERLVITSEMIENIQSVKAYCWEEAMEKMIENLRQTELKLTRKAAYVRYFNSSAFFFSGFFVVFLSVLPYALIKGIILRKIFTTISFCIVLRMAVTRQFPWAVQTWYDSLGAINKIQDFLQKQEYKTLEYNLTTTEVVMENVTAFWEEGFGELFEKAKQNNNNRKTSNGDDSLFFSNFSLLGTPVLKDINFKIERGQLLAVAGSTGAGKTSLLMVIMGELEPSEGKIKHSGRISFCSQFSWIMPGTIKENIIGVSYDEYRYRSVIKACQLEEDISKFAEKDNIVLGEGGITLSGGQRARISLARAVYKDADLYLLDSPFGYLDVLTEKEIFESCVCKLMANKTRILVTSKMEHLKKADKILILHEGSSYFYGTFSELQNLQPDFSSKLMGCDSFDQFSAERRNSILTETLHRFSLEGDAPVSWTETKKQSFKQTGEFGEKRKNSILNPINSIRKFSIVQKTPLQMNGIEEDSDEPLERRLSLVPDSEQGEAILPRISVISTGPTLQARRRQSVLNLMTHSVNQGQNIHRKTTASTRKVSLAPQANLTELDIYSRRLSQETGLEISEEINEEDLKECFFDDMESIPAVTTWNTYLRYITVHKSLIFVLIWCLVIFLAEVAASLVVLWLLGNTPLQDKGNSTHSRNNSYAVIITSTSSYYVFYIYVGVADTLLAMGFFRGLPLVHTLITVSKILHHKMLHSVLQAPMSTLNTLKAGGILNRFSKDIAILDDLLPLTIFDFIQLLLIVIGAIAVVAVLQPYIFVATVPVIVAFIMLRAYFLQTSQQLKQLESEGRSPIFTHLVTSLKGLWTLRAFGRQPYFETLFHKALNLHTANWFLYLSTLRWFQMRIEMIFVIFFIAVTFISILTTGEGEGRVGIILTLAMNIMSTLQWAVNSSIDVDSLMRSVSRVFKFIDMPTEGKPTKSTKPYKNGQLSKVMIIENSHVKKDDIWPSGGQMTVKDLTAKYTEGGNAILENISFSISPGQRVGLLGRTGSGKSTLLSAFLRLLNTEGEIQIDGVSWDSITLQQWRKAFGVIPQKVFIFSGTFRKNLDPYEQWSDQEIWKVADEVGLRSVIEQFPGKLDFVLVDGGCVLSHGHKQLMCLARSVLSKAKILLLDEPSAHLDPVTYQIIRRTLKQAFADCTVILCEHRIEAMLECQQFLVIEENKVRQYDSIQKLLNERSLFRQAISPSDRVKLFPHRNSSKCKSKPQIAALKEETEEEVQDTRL
Description for Bacillus cereus: Antibacterial activity against Bacillus cereus ATTC 10876 assessed as reduction in bacterial growth incubated for 18 to 24 hrs by broth microdilution method
Description for Escherichia coli: Antibacterial activity against Escherichia coli ATCC 25922 assessed as reduction in bacterial growth incubated for 18 to 24 hrs by broth microdilution method
Description for Proteus mirabilis: Antibacterial activity against Proteus mirabilis ATCC 35659 assessed as reduction in bacterial growth incubated for 18 to 24 hrs by broth microdilution method
Description for Pseudomonas aeruginosa: Antimicrobial activity against Pseudomonas aeruginosa ATCC 27853 assessed as inhibition of microbial growth by CLSI protocol based two-fold serial broth microdilution method
Description for Staphylococcus aureus: Antibacterial activity against Staphylococcus aureus ATCC 25923 assessed as reduction in bacterial growth incubated for 18 to 24 hrs by broth microdilution method

As usually defined, the IC50 is the concentration needed to halve the response being measured. For the compound `COC(=O)CC[C@@H](C)[C@H]1CC[C@H]2[C@@H]3[C@@H](O)C[C@@H]4C[C@H](n5cc(CCCCC#Cc6nc7c(N)ncnc7n6[C@@H]6O[C@H](CO)[C@@H](C)[C@H]6C)nn5)CC[C@]4(C)[C@H]3CC[C@]12C`, the IC50 in the data set on HCT-116 was 23.1 µM; with K562 it was 8.5 µM.
As to `O=c1cc(-c2ccc(OCCCn3cc(-c4cc5ccccc5c5ccccc45)nn3)cc2)oc2ccccc12`, in data set [1], the IC50 is 28.8 µM.
Still for that read-out and setting: to `CCCCCc1ccc(-c2cn(CCCOc3ccc(-c4cc(=O)c5ccccc5o4)cc3)nn2)cc1` belongs 36 µM.
In the case of `O=C(Cn1cc(CSc2nc3cc(OC(F)F)ccc3[nH]2)nn1)NC1CCCCC1`, the IC50 at 72 h in data set [2] came out at 53.3 µM.
As to `CCCCCCCCCCn1nnc(-c2n[nH]c(=S)n2N)c1-c1n[nH]c(=S)n1N`, the MIC against Escherichia coli, against Bacillus cereus, against Pseudomonas aeruginosa, in the data set on Staphylococcus aureus, in the data set on Proteus mirabilis and against Enterococcus faecalis [3] was 1 µM (≈ 0.438 µg/mL) each time. The MIC with Enterococcus faecalis [4] turned out to be 1 µM (≈ 0.438 µg/mL).
`CCCCCCCCCCCCCCCCn1nnc(-c2n[nH]c(=S)n2N)c1-c1n[nH]c(=S)n1N`: the MIC against Escherichia coli, with Bacillus cereus, against Pseudomonas aeruginosa, in the data set on Staphylococcus aureus, in the data set on Proteus mirabilis and in the data set on Enterococcus faecalis [3] was 1 µM (≈ 0.522 µg/mL) throughout. The MIC with Enterococcus faecalis [4] worked out at 1 µM (≈ 0.522 µg/mL).
`Cc1ccc(-n2cc(C3(c4ccc5c(c4)OC(F)(F)O5)CC3)nn2)cc1-c1cccc(C(=O)O)c1`: the IC50 in [5] came to 0.66 µM.
Consider `O=C1C=C(NCc2cn(Cc3ccc(C(F)(F)F)cc3)nn2)C(=O)c2ccccc21`, for which the IC50 came to 10.4 µM in the data set on MCF7, 10.4 µM in the data set with MOLT-4 and 6.8 µM in the data set with HT-29.
For `CCCCc1cn(CCCOc2ccc(-c3cc(=O)c4ccccc4o3)cc2)nn1`, in data set [1], the IC50 amounted to 29.7 µM.
Broadly, the Ki is the dissociation constant of the complex between target and ligand, obtained from inhibition or displacement. In data set [6], `CC(=O)N[C@H]1C(n2cc(COP(=O)(O)OC[C@H]3O[C@@H](n4ccc(=O)[nH]c4=O)[C@H](O)[C@@H]3O)nn2)O[C@H](CO)[C@@H](O)[C@@H]1O` (stereo not given in full) returned a Ki of 232 µM.
